Data published in the NIST ThermoML archive (doi:10.1016/j.jct.2009.07.002).
± gives the expanded uncertainty stated by the source.

Experiment: isobaric coefficient of expansion
Details: Liquid, DSC with Pressure Shift

CCCCCN [1-pentanamine]
isobaric coefficient of expansion
Details	278.15 K	288.15 K	298.15 K	308.15 K	318.15 K	328.15 K	338.15 K	348.15 K
5000 kPa	0.00109 ± 4.6e-05 1/K	0.00111 ± 4.7e-05 1/K	0.00112 ± 4.8e-05 1/K	0.00114 ± 4.8e-05 1/K	0.00116 ± 4.9e-05 1/K	0.00118 ± 5e-05 1/K	0.0012 ± 5.1e-05 1/K	0.00123 ± 5.2e-05 1/K
10000 kPa	0.00107 ± 4.5e-05 1/K	0.00108 ± 4.6e-05 1/K	0.00109 ± 4.6e-05 1/K	0.00111 ± 4.7e-05 1/K	0.00112 ± 4.8e-05 1/K	0.00114 ± 4.8e-05 1/K	0.00116 ± 4.9e-05 1/K	0.00118 ± 5e-05 1/K
15000 kPa	0.00105 ± 4.5e-05 1/K	0.00106 ± 4.5e-05 1/K	0.00107 ± 4.5e-05 1/K	0.00108 ± 4.6e-05 1/K	0.00109 ± 4.6e-05 1/K	0.0011 ± 4.7e-05 1/K	0.00112 ± 4.7e-05 1/K	0.00113 ± 4.8e-05 1/K
20000 kPa	0.00102 ± 4.3e-05 1/K	0.00104 ± 4.4e-05 1/K	0.00104 ± 4.4e-05 1/K	0.00106 ± 4.5e-05 1/K	0.00106 ± 4.5e-05 1/K	0.00107 ± 4.5e-05 1/K	0.00108 ± 4.6e-05 1/K	0.0011 ± 4.6e-05 1/K
25000 kPa	0.00101 ± 4.3e-05 1/K	0.00102 ± 4.3e-05 1/K	0.00102 ± 4.3e-05 1/K	0.00103 ± 4.4e-05 1/K	0.00104 ± 4.4e-05 1/K	0.00104 ± 4.4e-05 1/K	0.00105 ± 4.5e-05 1/K	0.00106 ± 4.5e-05 1/K
30000 kPa	0.000988 ± 4.2e-05 1/K	0.000994 ± 4.2e-05 1/K	0.001 ± 4.2e-05 1/K	0.00101 ± 4.3e-05 1/K	0.00101 ± 4.3e-05 1/K	0.00102 ± 4.3e-05 1/K	0.00102 ± 4.3e-05 1/K	0.00103 ± 4.4e-05 1/K
35000 kPa	0.000969 ± 4.1e-05 1/K	0.000973 ± 4.1e-05 1/K	0.000981 ± 4.2e-05 1/K	0.000988 ± 4.2e-05 1/K	0.000989 ± 4.2e-05 1/K	0.000989 ± 4.2e-05 1/K	0.000993 ± 4.2e-05 1/K	0.000999 ± 4.2e-05 1/K
40000 kPa	0.000954 ± 4e-05 1/K	0.000958 ± 4.1e-05 1/K	0.000966 ± 4.1e-05 1/K	0.000968 ± 4.1e-05 1/K	0.000967 ± 4.1e-05 1/K	0.000971 ± 4.1e-05 1/K	0.000972 ± 4.1e-05 1/K	0.000972 ± 4.1e-05 1/K
45000 kPa	0.000938 ± 4e-05 1/K	0.000937 ± 4e-05 1/K	0.000944 ± 4e-05 1/K	0.000949 ± 4e-05 1/K	0.000947 ± 4e-05 1/K	0.000949 ± 4e-05 1/K	0.000951 ± 4e-05 1/K	0.000954 ± 4e-05 1/K
50000 kPa	0.000921 ± 3.9e-05 1/K	0.000925 ± 3.9e-05 1/K	0.000927 ± 3.9e-05 1/K	0.000929 ± 3.9e-05 1/K	0.000928 ± 3.9e-05 1/K	0.000931 ± 4e-05 1/K	0.00093 ± 3.9e-05 1/K	0.00093 ± 3.9e-05 1/K
55000 kPa	0.000895 ± 3.8e-05 1/K	0.0009 ± 3.8e-05 1/K	0.000894 ± 3.8e-05 1/K	0.000898 ± 3.8e-05 1/K	0.000898 ± 3.8e-05 1/K	0.000898 ± 3.8e-05 1/K	0.000899 ± 3.8e-05 1/K	0.000891 ± 3.8e-05 1/K
